Measurements taken from patent US20220133747A1, “ESTROGEN RECEPTOR INHIBITORS AND USES THEROF” (The Regents of the University of California, priority 2018, published 2022).
“Also recorded” adds a separate entry of the source.

What was measured:
ER = target: T1, ER (Homo sapiens, UniProt P03372); experiment: Specific [3H]estradiol-17β binding competition in MCF-7 breast cancer cells; details: MCF-7 cells, 10 nM
T1 construct: endogenous in cells; host or cells: MCF-7 human breast cancer cells in suspension (intact cells)
T1 sequence (P03372 1-595): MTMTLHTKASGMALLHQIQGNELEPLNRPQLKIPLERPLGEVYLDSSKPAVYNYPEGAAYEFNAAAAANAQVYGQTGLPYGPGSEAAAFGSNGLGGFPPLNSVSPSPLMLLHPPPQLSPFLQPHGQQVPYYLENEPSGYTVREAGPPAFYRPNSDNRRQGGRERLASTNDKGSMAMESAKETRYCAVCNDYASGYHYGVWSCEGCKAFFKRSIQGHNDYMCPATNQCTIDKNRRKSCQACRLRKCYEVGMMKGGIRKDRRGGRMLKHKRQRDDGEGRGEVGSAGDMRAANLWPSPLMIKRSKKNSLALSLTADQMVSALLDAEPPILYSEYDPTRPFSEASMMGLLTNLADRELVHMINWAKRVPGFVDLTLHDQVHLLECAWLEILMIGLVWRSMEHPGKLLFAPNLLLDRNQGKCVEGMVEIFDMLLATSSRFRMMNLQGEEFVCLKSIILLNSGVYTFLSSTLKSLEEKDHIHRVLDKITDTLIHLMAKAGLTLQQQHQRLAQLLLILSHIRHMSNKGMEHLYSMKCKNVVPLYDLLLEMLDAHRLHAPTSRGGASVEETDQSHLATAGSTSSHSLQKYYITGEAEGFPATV
Method: (§1) FIGS. 20A-20C show biologic activity of selected SERD candidates. […] ER-positive MCF-7 cells were treated in phenol-red free RPMI 1640 without FBS and containing vehicle control (CON) or 100 nM concentrations of either fulvestrant (FX) or antiestrogens 105, 109, 121, 140, 151, 160 or SERD128 in vitro. After 4 hours, cells were harvested and processed for PAGE and Western immunoblots using ERα antibody (1D5, Thermofisher Scientific). RPL13A was used as a loading control. […] Cells were dosed with either E2 alone or with SERDs combined with E2 in phenol redfree medium with 0.1% dextran-coated charcoal-treated FBS in luminometer plates. Data are presented as relative light units (RLU) relative to that of E2 alone in three replicate assays (4 wells per replicate) f SEM. Treatment with E2 alone induced a 12-fold induction of ER-dependent luciferase activity quantified as RLU relative to vehicle control-treated samples.
Specific estradiol-17β (E2) binding and competition for binding by antiestrogen SERD128 or fulvestrant was assessed in human MCF-7 breast cancer cells using methods as described before. […] Competitive ligand binding to ER-positive MCF-7 cells is detected by the ability of a test compound to displace labeled estradiol-17β from the cells in vitro.

[1] = test system: ER-dependent transcription; experiment: ERE-luciferase T47D reporter, ER-dependent transcriptional activity; type: cell-based, human; details: T47D ERE-luciferase, 10 nM with 2 nM 17β-estradiol
Method: as §1
A stable ER-positive T47D ERE luciferase reporter cell line, in which the ERE and the reporter luciferase gene are consistently expressed in the cell line were used in this study (Signosis). […] Lysate was mixed 1:1 with luciferase substrate (Promega), and luminescence was measured using a MLX microtiter plate luminometer (Dynex) and quantified as relative light units (RLU) according to established procedures. Total protein was quantified using BioRad Protein Assay (BioRad).

T47D cells = experiment: Cell proliferation assay, T47D; type: cell-based, human; details: 10 nM with 2 nM estradiol-17β, 48 hr
ZR75 cells = experiment: Cell proliferation assay, ZR75; type: cell-based, human; details: ZR75, 10 nM with 2 nM estradiol-17β, 48 hr
[2] = test system: MCF-7 human breast tumor xenografts; experiment: MCF-7 human breast tumor xenografts in nude mice; type: in vivo; details: 15 and 75 mg/kg once a day by oral gavage for 28 days
[3] = clinic; cited from earlier work

SMILES	competition for specific [3H]estradiol-17β (E2) binding (ER)	ER-dependent luciferase activity (RLU relative to E2 alone) [1]	cell proliferation (% of estradiol-treated controls) (T47D cells)	cell proliferation (% of estradiol-treated controls) (ZR75 cells)	tumor growth (tumor volume) [2]	bioavailability [3]
C[C@]12C[C@H](Oc3ccc(N)c(C(F)(F)F)c3)[C@@H]3c4ccc(O)cc4CC[C@H]3[C@@H]1CC[C@@H]2O [SERD128, (8S,9S,11S,13S,14S,17S)-11-(4-Amino-3-(trifluoromethyl)phenoxy)-13-methyl-7,8,9,11,12,13,14,15,16,17-decahydro-6H-cyclopenta[a]phenanthrene-3,17-diol]	comparable to that of the pure antiestrogen fulvestrant	comparable to that of the pure antiestrogen fulvestrant	significantly blocked proliferation; also recorded: significantly inhibited	significantly blocked proliferation; also recorded: significantly inhibited	inhibits growth of human breast tumor xenografts in vivo; also recorded: significantly inhibited tumor growth in MCF-7 xenograft models in a dose-dependent manner; also recorded: inhibit the growth of human MCF-7 breast tumor xenografts in vivo in a dose-dependent manner; also recorded: potent biologic action in blocking the progression of breast tumors in vivo via an oral route of administration	
C[C@]12CC[C@@H]3c4ccc(O)cc4C[C@@H](CCCCCCCCC[S+]([O-])CCCC(F)(F)C(F)(F)F)[C@H]3[C@@H]1CC[C@@H]2O (stereo partly drawn) [fulvestrant, reference compound]						very low bioavailability
